According to US20230203060A1 (GENFLEET THERAPEUTICS (SHANGHAI) INC., priority 2020, published 2023):
pIC50: −log10 of the molar value.

test system: KRAS G12C mutant NCI-H358 cells; experiment: Cell proliferation inhibition experiment, 3D spheroid, CellTiter-Glo, NCI-H358; type: cell-based, human; conditions: Homo sapiens, NCI-H358, 120 h, NCI-H358 (KRAS G12C mutant) 3D spheroid, 5 days with compound, CellTiter-Glo; read-out: H358 IC50
Procedure, shortened: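 IC50 values come from four-parameter fits of proliferation inhibition, measured by CellTiter-Glo after 5-day compound exposure. Spheroids of H358 (800 cells) or A549 (400 cells) were formed overnight in 2% FBS medium; DMSO held at 0.1%, doses spaced 3.16-fold.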

Structure (SMILES)	pIC50
C=CC(=O)N1CCN2C(=O)c3c(N4CCOC[C@@H]4C)nc(-c4c(O)cccc4F)c(Cl)c3OC[C@H]2C1 [Z32]	8.05
C=CC(=O)N1CCN2C(=O)c3c(N4CCN(C)C[C@@H]4C)nc(C#CC)c(Cl)c3OC[C@H]2C1 [Z459, (R)-8-acryloyl-4-chloro-1-((S)-2,4-dimethylpiperazin-1-yl)-3-(prop-1-yn-1-yl)-6,6a,7,8,9,10-hexahydro-12H-pyrazino[2,1-c]pyrido[3,4-f][1,4]oxazepin-12-one]	6.04
C=CC(=O)N1CCN2C(=O)c3c(N4CCN(C)C[C@@H]4C)nc(-c4ccccc4F)c(Cl)c3OC[C@H]2C1 [Z407-1, (R)-8-acryloyl-4-chloro-1-((S)-2,4-dimethylpiperazin-1-yl)-3-(2-fluorophenyl)-6,6a,7,8,9,10-hexahydro-12H-pyrazino[2,1-c]pyrido[3,4-f][1,4]oxazepin-12-one]	7.73
C=CC(=O)N1CCN2C(=O)c3c(N4CC(O)CC4(C)C)nc(-c4c(F)cccc4OC)c(F)c3OC[C@H]2C1 (single isomer, unassigned) [Z450]	7.88
C=CC(=O)N1CCN2C(=O)c3c(N4C[C@H](N5CC(C(F)(F)F)C5)CC4(C)C)nc(-c4ccccc4F)c(Cl)c3OC[C@H]2C1 (single isomer, unassigned) [Z608-1]	7.00
C=CC(=O)N1CCN2C(=O)c3c(N[C@H](C)c4ccccc4)nc(-c4c(O)cccc4F)c(Cl)c3OC[C@H]2C1 [Z28, (6aR)-8-acryloyl-4-chloro-3-(2-fluoro-6-hydroxyphenyl)-1-(((R)-1-phenylethyl)amino)-6,6a,7,8,9,10-hexahydro-12H-pyrazino[2,1-c]pyrido[3,4-f][1,4]oxazepin-12-one]	7.21
C=CC(=O)N1CCN2C(=O)c3c(N4C[C@@H](N(C)C)CC4(C)C)nc(-c4cccc(C)c4F)c(Cl)c3OC[C@H]2C1 (single isomer, unassigned) [Z472-1]	7.80
C=CC(=O)N1CCN2C(=O)c3c(N4CCC[C@H]4C)nc(-c4c(O)cccc4F)c(Cl)c3OC[C@H]2C1 [Z48, (6aR)-8-acryloyl-1-((R)-2-methylpyrrolidin-1-yl)-4-chloro-3-(2-fluoro-6-hydroxyphenyl)-6,6a,7,8,9,10-hexahydro-12H-pyrazino[2,1-c]pyrido[3,4-f][1,4]oxazepin-12-one]	7.82
C=CC(=O)N1CCN2C(=O)c3c(N4C[C@H](N5CCN(C)CC5)CC4(C)C)nc(-c4c(F)cccc4Cl)c(Cl)c3OC[C@H]2C1 (single isomer, unassigned) [Z635-2]	8.15

The next compounds have a higher pIC50 than those just listed; values first:

pIC50	Structure (SMILES)
8.47	C=CC(=O)N1CCN2C(=O)c3c(N4C[C@@H](N5CC(F)C5)CC4(C)C)nc(-c4ccccc4F)c(Cl)c3OC[C@H]2C1 [Z480-1, (R)-8-acryloyl-4-chloro-1-((S)-4-(3-fluoroazetidin-1-yl)-2,2-dimethylpyrrolidin-1-yl)-3-(2-fluorophenyl)-6,6a,7,8,9,10-hexahydro-12H-pyrazino[2,1-c]pyrido[3,4-f][1,4]oxazepin-12-one]
8.49	C=CC(=O)N1CCN2C(=O)c3c(N4C[C@@H](O)CC4(C)C)nc(-c4c(N)cccc4F)c(F)c3OC[C@H]2C1 [Z481, (6aR)-8-acryloyl-3-(2-amino-6-fluorophenyl)-4-fluoro-1-((S)-4-hydroxy-2,2-dimethylpyrrolidin-1-yl)-6,6a,7,8,9,10-hexahydro-12H-pyrazino[2,1-c]pyrido[3,4-f][1,4]oxazepin-12-one]
8.70	C=CC(=O)N1CCN2C(=O)c3c(N4CC(N(C)CC(F)(F)F)CC4(C)C)nc(-c4ccccc4F)c(Cl)c3OC[C@H]2C1 (mixture of isomers) [Z491a, (6aR)-8-acryloyl-4-chloro-1-(2,2-dimethyl-4-(methyl(2,2,2-trifluoroethyl)amino)pyrrolidin-1-yl)-3-(2-fluorophenyl)-6,6a,7,8,9,10-hexahydro-12H-pyrazino[2,1-c]pyrido[3,4-f][1,4]oxazepin-12-one]
8.41	C=CC(=O)N1CCN2C(=O)c3c(N4CCN(C)C[C@@H]4C)nc(-c4c(O)cccc4Cl)c(Cl)c3OC[C@H]2C1 [Z452, (6aR)-8-acryloyl-4-chloro-3-(2-chloro-6-hydroxyphenyl)-1-((S)-2,4-dimethylpiperazin-1-yl)-6,6a,7,8,9,10-hexahydro-12H-pyrazino[2,1-c]pyrido[3,4-f][1,4]oxazepin-12-one]
8.52	C=CC(=O)N1CCN2C(=O)c3c(N4C[C@@H](NCC(F)(F)F)CC4(C)C)nc(-c4ccccc4F)c(Cl)c3OC[C@H]2C1 (single isomer, unassigned) [Z662-1]
8.22	C=CC(=O)N1CCN2C(=O)c3c(N4C[C@@H](N(C)C)CC4(C)C)nc(-c4ccccc4F)c(Cl)c3OC[C@H]2C1 [Z453-1, (R)-8-acryloyl-4-chloro-1-((S)-4-(dimethylamino)-2,2-dimethylpyrrolidin-1-yl)-3-(2-fluorophenyl)-6,6a,7,8,9,10-hexahydro-12H-pyrazino[2,1-c]pyrido[3,4-f][1,4]oxazepin-12-one]
8.35	C=CC(=O)N1CCN2C(=O)c3c(N4C[C@@H](N5CC(C#N)C5)CC4(C)C)nc(-c4ccccc4F)c(Cl)c3OC[C@H]2C1 (single isomer, unassigned) [Z637-2]
